What was measured:
EGFR L858R = EGFR L858R (Homo sapiens, UniProt P00533, L858R); test: EGFR biochemical assay (headed HTRF-based; method describes Z'-LYTE), L858R; settings: Table 4
Protocol: (§1) To measure the IC50 values of compounds herein against EGFR, a Z′-LYTE assay (ThermoFisher) was used. Briefly, 2.5 μL of different concentrations of the compounds in 4% DMSO were added to 5 μL kinase/peptide mixture in each well of a 384-well plate (Corning Cat. #3676). 2.5 μL of 4× ATP solution (4× ATP, 50 mM HEPES, pH 7.5, 0.01% BRIJ-35, 10 mM MgCl2, 1 mM EGTA) were added to each well. The plate was shaken for 30 seconds, and then incubated at room temperature for 60 minutes. 5 μL of a 1:100000 dilution of Development Reagent A was added to each well. The plate was then incubated for 60 mins at room temperature. 5 μL of the stop reagent was then added. The plate was subsequently read on a fluorescence plate reader, and the emissions ratio was calculated to determine the ratio of Ser/Thr 07 phosphorylated by the reaction. Emissions Ratio═Coumarin Emission (443 nm)/Flourescein Emission (520 nm).
(§2) HTRF-based EGFR assay data are provided below in Table 4.

EGFR L858R/T790M = EGFR L858R/T790M (Homo sapiens, UniProt P00533, L858R/T790M); test: EGFR biochemical assay (headed HTRF-based; method describes Z'-LYTE), L858R/T790M; settings: Table 4
Chain of EGFR L858R/T790M (P00533 25-1210 T790M/L858R): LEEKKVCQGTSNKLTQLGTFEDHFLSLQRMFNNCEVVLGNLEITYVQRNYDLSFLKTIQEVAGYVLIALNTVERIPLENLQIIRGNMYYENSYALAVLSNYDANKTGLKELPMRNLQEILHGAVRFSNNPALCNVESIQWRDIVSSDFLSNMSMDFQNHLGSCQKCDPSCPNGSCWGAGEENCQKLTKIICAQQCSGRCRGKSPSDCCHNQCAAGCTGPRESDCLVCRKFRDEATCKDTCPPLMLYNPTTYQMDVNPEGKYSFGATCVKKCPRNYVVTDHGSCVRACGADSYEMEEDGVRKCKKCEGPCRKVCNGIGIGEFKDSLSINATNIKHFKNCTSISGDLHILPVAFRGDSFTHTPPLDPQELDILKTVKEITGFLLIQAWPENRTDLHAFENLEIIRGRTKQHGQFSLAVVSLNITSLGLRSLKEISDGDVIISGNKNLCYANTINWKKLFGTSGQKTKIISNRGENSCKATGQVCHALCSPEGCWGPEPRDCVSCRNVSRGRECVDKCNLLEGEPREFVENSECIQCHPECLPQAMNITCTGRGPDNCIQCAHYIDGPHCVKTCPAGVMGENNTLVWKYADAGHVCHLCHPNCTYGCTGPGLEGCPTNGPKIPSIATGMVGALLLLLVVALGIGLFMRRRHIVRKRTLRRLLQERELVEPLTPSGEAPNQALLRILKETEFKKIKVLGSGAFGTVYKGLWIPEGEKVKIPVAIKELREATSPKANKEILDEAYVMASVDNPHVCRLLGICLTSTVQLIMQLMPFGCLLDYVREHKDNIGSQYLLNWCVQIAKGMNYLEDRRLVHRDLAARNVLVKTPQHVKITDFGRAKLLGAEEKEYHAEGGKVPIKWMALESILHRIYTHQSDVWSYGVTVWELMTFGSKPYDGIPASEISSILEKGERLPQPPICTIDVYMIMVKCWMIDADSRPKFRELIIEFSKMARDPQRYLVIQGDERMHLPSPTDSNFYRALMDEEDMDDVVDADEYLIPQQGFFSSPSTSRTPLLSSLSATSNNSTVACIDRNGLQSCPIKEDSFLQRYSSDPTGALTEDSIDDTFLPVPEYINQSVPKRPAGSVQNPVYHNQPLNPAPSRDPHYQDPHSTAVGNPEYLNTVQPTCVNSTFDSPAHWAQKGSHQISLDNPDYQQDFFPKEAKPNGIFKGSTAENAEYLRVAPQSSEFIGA
Protocol: as §1, §2

[1] = target: EGFR mutant L858R Ba/F3 cells (Homo sapiens, UniProt P00533, L858R, cells depend on it); test: Ba/F3 cell proliferation (Cell Titer Glo), EGFR L858R; type: cell-based, murine; settings: 72 hours, Table 6, read-out: L858R BaF3
Chain of EGFR mutant L858R Ba/F3 cells (P00533 whole entry L858R): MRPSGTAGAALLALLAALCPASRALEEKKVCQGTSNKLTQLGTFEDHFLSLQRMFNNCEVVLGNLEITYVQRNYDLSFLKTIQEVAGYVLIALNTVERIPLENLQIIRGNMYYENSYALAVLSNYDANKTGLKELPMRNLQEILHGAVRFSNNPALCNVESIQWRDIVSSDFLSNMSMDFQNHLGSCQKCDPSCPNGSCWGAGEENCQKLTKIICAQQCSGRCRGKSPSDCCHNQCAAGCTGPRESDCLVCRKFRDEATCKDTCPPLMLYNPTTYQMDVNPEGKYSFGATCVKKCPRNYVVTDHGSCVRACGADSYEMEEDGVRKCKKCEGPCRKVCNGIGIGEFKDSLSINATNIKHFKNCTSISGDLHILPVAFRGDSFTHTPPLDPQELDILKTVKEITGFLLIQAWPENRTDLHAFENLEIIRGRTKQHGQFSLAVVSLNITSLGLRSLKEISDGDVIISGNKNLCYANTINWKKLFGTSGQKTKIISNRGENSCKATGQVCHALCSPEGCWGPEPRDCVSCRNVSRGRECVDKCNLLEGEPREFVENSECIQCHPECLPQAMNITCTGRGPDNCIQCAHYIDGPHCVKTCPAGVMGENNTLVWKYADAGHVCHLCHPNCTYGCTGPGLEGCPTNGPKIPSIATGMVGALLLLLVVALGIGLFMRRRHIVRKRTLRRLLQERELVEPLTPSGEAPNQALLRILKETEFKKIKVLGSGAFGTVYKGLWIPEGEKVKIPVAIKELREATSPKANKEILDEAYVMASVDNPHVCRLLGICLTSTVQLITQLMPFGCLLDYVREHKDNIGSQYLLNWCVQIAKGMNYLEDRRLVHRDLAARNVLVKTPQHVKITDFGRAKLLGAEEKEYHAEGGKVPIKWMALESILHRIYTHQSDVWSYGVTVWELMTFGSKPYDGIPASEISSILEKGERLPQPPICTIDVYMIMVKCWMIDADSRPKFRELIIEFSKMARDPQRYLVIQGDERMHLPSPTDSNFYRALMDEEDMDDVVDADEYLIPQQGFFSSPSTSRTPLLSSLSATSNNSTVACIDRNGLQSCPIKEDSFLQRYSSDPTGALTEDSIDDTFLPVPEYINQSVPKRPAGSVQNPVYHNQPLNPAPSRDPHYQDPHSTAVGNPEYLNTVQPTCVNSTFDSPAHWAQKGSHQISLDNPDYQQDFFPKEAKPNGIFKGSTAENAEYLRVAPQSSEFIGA
Method in brief: (§3)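 Retrovirally transduced, puromycin-selected Ba/F3 cells expressing EGFR L858R or L858R/C797S, grown in RPMI + 10% FBS, exposed to compounds for 72 h in triplicate. Viability by Cell Titer Glo ATP luminescence; IC50 from sigmoidal dose-response fit, binned A <0.1, B 0.1–0.5, C 0.5–2.5, D ≥2.5 μM.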

[2] = target: EGFR L858R/C797S Ba/F3 cells (Homo sapiens, UniProt P00533, C797S/L858R, cells depend on it); test: Ba/F3 cell proliferation (Cell Titer Glo), EGFR L858R/C797S; type: cell-based, murine; settings: 72 hours, Table 6
Chain of EGFR L858R/C797S Ba/F3 cells (P00533 whole entry C797S/L858R): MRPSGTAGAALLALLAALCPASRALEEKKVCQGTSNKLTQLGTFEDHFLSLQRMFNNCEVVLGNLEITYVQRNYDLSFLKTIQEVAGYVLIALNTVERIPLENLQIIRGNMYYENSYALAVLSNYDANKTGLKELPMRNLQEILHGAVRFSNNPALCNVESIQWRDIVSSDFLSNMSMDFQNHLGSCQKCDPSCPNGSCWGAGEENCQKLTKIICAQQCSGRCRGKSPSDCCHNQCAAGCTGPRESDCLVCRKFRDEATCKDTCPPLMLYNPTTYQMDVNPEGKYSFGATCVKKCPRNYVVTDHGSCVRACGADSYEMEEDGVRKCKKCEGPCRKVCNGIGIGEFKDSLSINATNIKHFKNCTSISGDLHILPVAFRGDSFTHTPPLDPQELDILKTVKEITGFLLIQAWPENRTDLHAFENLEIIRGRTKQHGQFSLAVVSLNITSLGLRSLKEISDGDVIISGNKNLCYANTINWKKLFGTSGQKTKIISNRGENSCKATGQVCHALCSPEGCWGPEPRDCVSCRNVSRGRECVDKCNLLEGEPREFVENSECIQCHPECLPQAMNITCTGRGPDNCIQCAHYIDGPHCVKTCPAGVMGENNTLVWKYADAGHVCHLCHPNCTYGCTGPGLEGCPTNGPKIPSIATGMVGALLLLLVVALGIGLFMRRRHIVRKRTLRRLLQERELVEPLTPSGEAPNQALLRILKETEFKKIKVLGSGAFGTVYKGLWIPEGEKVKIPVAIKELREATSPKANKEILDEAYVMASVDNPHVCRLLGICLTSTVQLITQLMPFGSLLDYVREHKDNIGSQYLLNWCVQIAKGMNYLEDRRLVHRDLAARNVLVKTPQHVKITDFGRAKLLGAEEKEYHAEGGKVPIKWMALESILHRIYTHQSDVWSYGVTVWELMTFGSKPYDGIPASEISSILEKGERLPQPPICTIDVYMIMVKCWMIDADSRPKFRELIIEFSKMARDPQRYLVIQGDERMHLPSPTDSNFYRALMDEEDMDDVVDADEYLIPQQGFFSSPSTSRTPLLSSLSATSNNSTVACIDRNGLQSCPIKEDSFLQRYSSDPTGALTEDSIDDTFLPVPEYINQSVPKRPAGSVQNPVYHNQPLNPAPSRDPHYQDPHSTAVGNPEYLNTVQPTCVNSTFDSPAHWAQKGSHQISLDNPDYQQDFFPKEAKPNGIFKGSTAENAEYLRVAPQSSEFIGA
Method in brief: as §3

Chain of EGFR L858R (P00533 25-1210 L858R): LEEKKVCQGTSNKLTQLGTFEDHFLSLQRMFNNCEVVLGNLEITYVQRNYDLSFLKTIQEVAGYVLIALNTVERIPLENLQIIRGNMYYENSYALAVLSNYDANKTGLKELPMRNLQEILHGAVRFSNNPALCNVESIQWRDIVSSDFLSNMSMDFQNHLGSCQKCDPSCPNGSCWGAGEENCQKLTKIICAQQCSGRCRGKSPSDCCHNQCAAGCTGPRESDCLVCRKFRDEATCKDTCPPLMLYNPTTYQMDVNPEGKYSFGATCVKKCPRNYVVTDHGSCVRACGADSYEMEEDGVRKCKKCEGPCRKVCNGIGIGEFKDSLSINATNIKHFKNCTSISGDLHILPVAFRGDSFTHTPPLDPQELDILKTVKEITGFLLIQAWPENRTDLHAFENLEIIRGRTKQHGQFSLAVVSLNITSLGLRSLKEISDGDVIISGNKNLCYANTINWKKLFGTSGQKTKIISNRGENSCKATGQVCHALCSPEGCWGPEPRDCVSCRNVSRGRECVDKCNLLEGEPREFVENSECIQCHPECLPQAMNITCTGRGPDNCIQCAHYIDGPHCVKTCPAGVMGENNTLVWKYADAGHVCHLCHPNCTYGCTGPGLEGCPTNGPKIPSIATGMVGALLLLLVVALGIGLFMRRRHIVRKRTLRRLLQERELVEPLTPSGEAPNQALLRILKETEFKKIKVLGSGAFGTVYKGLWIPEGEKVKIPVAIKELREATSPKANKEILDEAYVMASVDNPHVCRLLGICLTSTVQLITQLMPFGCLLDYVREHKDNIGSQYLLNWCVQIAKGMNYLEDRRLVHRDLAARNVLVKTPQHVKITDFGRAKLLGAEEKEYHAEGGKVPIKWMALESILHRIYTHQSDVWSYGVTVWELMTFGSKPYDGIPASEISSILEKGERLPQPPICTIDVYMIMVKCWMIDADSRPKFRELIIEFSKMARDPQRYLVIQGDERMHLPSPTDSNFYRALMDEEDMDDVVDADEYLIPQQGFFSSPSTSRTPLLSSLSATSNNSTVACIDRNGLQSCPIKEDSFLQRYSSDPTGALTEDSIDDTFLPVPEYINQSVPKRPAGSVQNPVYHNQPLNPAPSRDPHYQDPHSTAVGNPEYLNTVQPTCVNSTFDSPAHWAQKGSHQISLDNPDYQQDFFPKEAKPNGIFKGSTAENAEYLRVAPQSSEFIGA

IC50 (EGFR L858R) [nM]	IC50 (EGFR L858R/T790M) [nM]	GI50 [1] [nM]	GI50 [2] [nM]	Compound
0.89	> 1000	< 100	< 100	C=CC(=O)N1c2ccccc2[C@@H](N2Cc3cnc(Nc4ccc(N5CCN(C)CC5)cc4)nc3N(C)C2=O)C[C@@H]1C [Compound 135, 1-methyl-7-[4-(4-methylpiperazin-1-yl)anilino]-3-[(2S,4S)-2-methyl-1-prop-2-enoyl-3,4-dihydro-2H-quinolin-4-yl]-4H-pyrimido[4,5-d]pyrimidin-2-one]
> 1000	> 1000	≥ 2500	≥ 2500	C=C(CN1CCC(N2Cc3cnc(Nc4ccc(N5CCN(C)CC5)cc4)nc3N(C)C2=O)C1)C(=O)O (centres unmarked) [Compound 136, 2-[[3-[1-methyl-7-[4-(4-methylpiperazin-1-yl)anilino]-2-oxo-4H-pyrimido[4,5-d]pyrimidin-S-yl]pyrrolidin-1-yl]methyl]prop-2-enoic acid]
> 1000	> 1000	≥ 2500	≥ 2500	C=C(CN1CC(N2Cc3cnc(Nc4ccc(N5CCN(C)CC5)cc4)nc3N(C)C2=O)C1)C(=O)O [Compound 137, 2-[[3-[1-methyl-7-[4-(4-methylpiperazin-1-yl)anilino]-2-oxo-4H-pyrimido[4,5-d]pyrimidin-S-yl]azetidin-1-yl]methyl]prop-2-enoic acid]
> 1000	> 1000	≥ 2500	≥ 2500	C=CC(=O)N1C[C@@H](N2Cc3cnc(Nc4ccc(N5CCN(C)CC5)cc4)nc3N(C)C2=O)C[C@@H]1C(=O)O [Compound 138, (2R,4S)-4-[1-methyl-7-[4-(4-methylpiperazin-1-yl)anilino]-2-oxo-4H-pyrimido[4,5-d]pyrimidin-S-yl]-1-prop-2-enoyl-pyrrolidine-2-carboxylic acid]
> 1000	> 1000	100 to 500	500 to 2500	C=CC(=O)N(C)c1ccccc1CN1Cc2cnc(Nc3ccc(N4CCN(C)CC4)cc3)nc2N(C)C1=O [Compound 139, N-methyl-N-[2-[[1-methyl-7-[4-(4-methylpiperazin-1-yl)anilino]-2-oxo-4H-pyrimido[4,5-d]pyrimidin-S-yl]methyl]phenyl]prop-2-enamide]
0.97	> 1000	< 100	< 100	C=CC(=O)N1CC[C@H](N2Cc3cnc(Nc4ccc(N5CCN(C)CC5)cc4)nc3N(C)C2=O)c2cccc(C)c21 [Compound 140, 1-methyl-7-[4-(4-methylpiperazin-1-yl)anilino]-S-[(4S)-8-methyl-1-prop-2-enoyl-3,4-dihydro-2H-quinolin-4-yl]-4H-pyrimido[4,5-d]pyrimidin-2-one]
> 1000	> 1000	100 to 500	100 to 500	C=CC(=O)N1CC[C@@H](N2Cc3cnc(Nc4ccc(N5CCN(C)CC5)cc4)nc3N(C)C2=O)c2cccc(C)c21 [Compound 141]
> 1000	> 1000	500 to 2500	≥ 2500	C=CC(=O)N1CCC12CC(N1Cc3cnc(Nc4ccc(N5CCN(C)CC5)cc4)nc3N(C)C1=O)C2 (stereo not drawn) [Compound 142, 1-methyl-7-[4-(4-methylpiperazin-1-yl)anilino]-S-(1-prop-2-enoyl-1-azaspiro[3.3]heptan-6-yl)-4H-pyrimido[4,5-d]pyrimidin-2-one]
> 1000	> 1000	500 to 2500	≥ 2500	C=CC(=O)N1CCC(N2Cc3cnc(Nc4ccc(N5CCN(C)CC5)cc4)nc3N(C)C2=O)c2cccc(C(F)(F)F)c21 (stereo not drawn) [Compound 143, 1-methyl-7-[4-(4-methylpiperazin-1-yl)anilino]-S-[1-prop-2-enoyl-8-(trifluoromethyl)-3,4-dihydro-2H-quinolin-4-yl]-4H-pyrimido[4,5-d]pyrimidin-2-one]
1.57	> 1000	< 100	< 100	C=CC(=O)N1CC[C@H](N2Cc3cnc(Nc4ccc(CS(C)(=O)=O)cc4)nc3N(C)C2=O)c2cccc(C)c21 [Compound 144]
1.77	> 1000	< 100	< 100	C=CC(=O)N1CC[C@H](N2Cc3cnc(Nc4ccc(CS(=O)(=O)NC)cc4)nc3N(C)C2=O)c2cccc(C)c21 [Compound 145]
> 1000	> 1000	500 to 2500	≥ 2500	C=CC(=O)N1CC[C@H](N2Cc3cnc(Nc4ccc(N5CCN(C)CC5)cc4)nc3N(C)C2=O)C[C@@H]1CO [Compound 146, 3-[(2R,4S)-2-(hydroxymethyl)-1-prop-2-enoyl-4-piperidyl]-1-methyl-7-[4-(4-methylpiperazin-1-yl)anilino]-4H-pyrimido[4,5-d]pyrimidin-2-one]
> 1000	> 1000	500 to 2500	≥ 2500	C=CC(=O)N1CCC(N2Cc3cnc(Nc4ccc(N5CCN(C)CC5)cc4)nc3N(C)C2=O)c2cccc(Cl)c21 (centres unmarked) [Compound 147, 3-(8-chloro-1-prop-2-enoyl-3,4-dihydro-2H-quinolin-4-yl)-1-methyl-7-[4-(4-methylpiperazin-1-yl)anilino]-4H-pyrimido[4,5-d]pyrimidin-2-one]
> 1000	> 1000	500 to 2500	500 to 2500	C=CC(=O)N1CCC(N2Cc3cnc(Nc4ccc(N5CCN(C)CC5)cc4)nc3N(C)C2=O)c2cccc(C#N)c21 (centres unmarked) [Compound 150, 4-[1-methyl-7-[4-(4-methylpiperazin-1-yl)anilino]-2-oxo-4H-pyrimido[4,5-d]pyrimidin-S-yl]-1-prop-2-enoyl-3,4-dihydro-2H-quinoline-8-carbonitrile]
0.86	> 1000	< 100	< 100	C=CC(=O)N1CC[C@H](N2Cc3cnc(Nc4ccc(N5CCN(C)CC5)cc4)nc3N(C3CCOC3)C2=O)c2cccc(C)c21 (stereo partly drawn) [Compound 151, 7-[4-(4-methylpiperazin-1-yl)anilino]-S-[(4S)-8-methyl-1-prop-2-enoyl-3,4-dihydro-2H-quinolin-4-yl]-1-tetrahydrofuran-S-yl-4H-pyrimido[4,5-d]pyrimidin-2-one]
1.17	> 1000	< 100	< 100	C=CC(=O)N1CC[C@H](N2Cc3cnc(Nc4ccc(N5CCN(C)CC5)cc4)nc3N(C3CC(O)C3)C2=O)c2cccc(C)c21 (stereo partly drawn) [Compound 152, 1-(3-hydroxycyclobutyl)-7-[4-(4-methylpiperazin-1-yl)anilino]-S-[(4S)-8-methyl-1-prop-2-enoyl-3,4-dihydro-2H-quinolin-4-yl]-4H-pyrimido[4,5-d]pyrimidin-2-one]
0.88	> 1000	< 100	< 100	C=CC(=O)N1CC[C@H](N2Cc3cnc(Nc4ccc(N5CCN(C)CC5)cc4)nc3N(CCO)C2=O)c2cccc(C)c21 [Compound 153, 1-(2-hydroxyethyl)-7-[4-(4-methylpiperazin-1-yl)anilino]-S-[(4S)-8-methyl-1-prop-2-enoyl-3,4-dihydro-2H-quinolin-4-yl]-4H-pyrimido[4,5-d]pyrimidin-2-one]
> 1000	> 1000	≥ 2500	≥ 2500	C=C1CC[C@H]2C[C@@H](N3Cc4cnc(Nc5ccc(N6CCN(C)CC6)cc5)nc4N(C)C3=O)CCN2C1=O [Compound 157, 1-methyl-S-(7-methylene-6-oxo-2,3,4,8,9,9a-hexahydro-1 H-quinolizin-2-yl)-7-[4-(4-methylpiperazin-1-yl)anilino]-4H-pyrimido[4,5-d]pyrimidin-2-one]
1.07	0.71	< 100	< 100	C=CC(=O)Nc1cccc(N2C(=O)N(C3CCN(C(=O)C=C)c4ccccc43)Cc3cnc(Nc4ccc(N5CCN(C)CC5)cc4)nc32)c1 (stereo not drawn) [Compound 158, N-[3-[7-[4-(4-methylpiperazin-1-yl)anilino]-2-oxo-S-(1-prop-2-enoyl-3,4-dihydro-2H-quinolin-4-yl)-4H-pyrimido[4,5-d]pyrimidin-1-yl]phenyl]prop-2-enamide]
> 100	> 100	500 to 2500	≥ 2500	C=CC(=O)N1CCC(N2Cc3cnc(Nc4ccc(N5CCN(C)CC5)cc4)nc3N(C)C2=O)C(c2ccccc2)C1 (centres unmarked) [Compound 159]

Source: patent US20240352021A1 (DANA-FARBER CANCER INSTITUTE, INC., priority 2021, published 2024)
